Values of other authors in US7041851B2, “Fluorinated phenyl thiophenyl derivatives and their use for imaging serotonin transporters” (The Trustees of the University of Pennsylvania, priority 2002, dated 2006).

Molecular target: T1, SERT (Rattus norvegicus, UniProt P31652)
T1 construct: from tissue; host or cells: rat brain in vivo (hypothalamus, striatum, hippocampus, cerebellum)
Details: rats, 11C-labelled; Huang et al., 2001b; cited from earlier work

T1 sequence (P31652 whole entry): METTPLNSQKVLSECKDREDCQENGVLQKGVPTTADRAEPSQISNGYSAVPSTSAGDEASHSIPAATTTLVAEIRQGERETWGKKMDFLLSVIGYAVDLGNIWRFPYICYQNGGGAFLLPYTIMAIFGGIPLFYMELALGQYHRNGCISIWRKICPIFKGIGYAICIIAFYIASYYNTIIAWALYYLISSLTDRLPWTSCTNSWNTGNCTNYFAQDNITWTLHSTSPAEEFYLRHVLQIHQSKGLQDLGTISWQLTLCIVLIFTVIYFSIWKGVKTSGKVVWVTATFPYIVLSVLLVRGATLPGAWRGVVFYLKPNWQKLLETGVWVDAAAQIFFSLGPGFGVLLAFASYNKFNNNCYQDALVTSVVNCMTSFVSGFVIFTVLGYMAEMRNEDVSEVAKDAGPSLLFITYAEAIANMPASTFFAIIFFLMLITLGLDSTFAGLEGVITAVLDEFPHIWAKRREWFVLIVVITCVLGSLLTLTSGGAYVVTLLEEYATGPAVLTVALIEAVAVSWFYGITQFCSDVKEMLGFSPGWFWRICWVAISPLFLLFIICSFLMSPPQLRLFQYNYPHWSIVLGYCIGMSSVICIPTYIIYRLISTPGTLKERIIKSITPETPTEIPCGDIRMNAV

## CN([11CH3])Cc1ccccc1Sc1ccc(CF)cc1N [AFM]
  Brain uptake and specific binding: excellent brain uptake and a high degree of specific binding
